Data set [1] deals with individuals with insomnia. To be noted: cited from earlier work.
The test system of data set [2] is participants with poor sleeping quality (PSQI 11-13). In words: Sleep quality tracked monthly with the Pittsburgh Sleep Quality Index (PSQI), 6 groups of 3 participants. It is filed as in vivo, human. The following applies: for PSQI M3: global PSQI score at month 3; for PSQI M3 / PSQI M4: With CBD (daily dosage per group, the 2nd table r16-r22); for PSQI M4: global PSQI score at month 4; for ΔPSQI (%): improvement of PSQI from M0 to M4. On the procedure: Some experiment showing the effect of the combination of CBD and four different omega-3 compounds (Fish Oil (Non-polar DHA+EPA), Fish oil (Non-polar EPA), Schizochytrium Oil (Non-Polar DHA), Nannochloropsis Oil (polar EPA)) were conducted. Daily dosage of omega 3 (DHA and/or EPA) was […].
Materials: CBD: Fish oil (non-polar DHA+EPA), Schizochytrium Oil (non-polar DHA), Nannochloropsis Oil (polar-EPA), Fish oil (non-polar EPA).
Experimental Design: Sleep quality was the measured in this study, as an efficacy indication. The experiment included 6 groups (3 participants per group) 8 women and 10 men, with similar Pittsburgh Sleep Quality Index (PSQI) rating (11-13), indicating poor sleeping quality. The average age for the participants was 37.2. All 18 participants completed sleep assessments at the onset of CBD treatment and at the monthly follow-ups.
All participants were given CBD and/or Omega 3 every evening, after dinner, per table 1 below. Sleep quality was tracked on a monthly basis, for a period of up to 4 months, using the PSQI. This Index is a self-report measure that assesses the quality of sleep during a 1-month period. […] The PSQI measures several different aspects of sleep, offering seven component scores and one composite score. The component scores consist of subjective sleep quality, sleep latency (i.e., how long it takes to fall asleep), sleep duration, habitual sleep efficiency (i.e., the percentage of time in bed that one is asleep), sleep disturbances, use of sleeping medication, and daytime dysfunction.
Each item is weighted on a 0-3 interval scale. The global PSQI score was calculated by totaling the seven component scores, providing an overall score ranging from 0 to 21, where lower scores denote a healthier sleep quality. A higher number indicates more sleep-related concerns. A score of 5 or greater indicates a “poor sleeper”.

With `C=C(C)[C@@H]1CCC(C)=C[C@H]1c1c(O)cc(CCCCC)cc1O` [CBD, Cannabidiol], in data set [1] (high-dose (160 mg/day) CBD), the “frequency of arousals during the night” value is recorded as “decreased the frequency of arousals during the night” and the total sleep time result was “increased total sleep time”. Besides, the wakefulness result in data set [1] (low-dose CBD) is “increased wakefulness”.

Turning to `C=C(C)[C@@H]1CCC(C)=C[C@H]1c1c(O)cc(CCCCC)cc1O` [Group A, Cannabidiol], in data set [2] (comparison between groups), the “effect on PSQI score / sleep quality, in words” value was “more efficient that low-dose CBD in improving PSQI score”. In data set [2], the “PSQI M3” value is 6.7, the “PSQI M4” value came out at 4.6 and the “ΔPSQI (%)” value stood at 62%. The Sedation entry in data set [2] (sedation effect Y/N during CBD treatment, listed as High-dose CBD) is listed as “had a sedation effect”.

On to `C=C(C)[C@@H]1CCC(C)=C[C@H]1c1c(O)cc(CCCCC)cc1O` [Group B, Cannabidiol], for which, in data set [2], the “PSQI M3” value was 11.3, the “PSQI M4” value came to 9.3 and the “ΔPSQI (%)” value is 24%. Further, in data set [2] (months with CBD), the “improvement of PSQI score, months 3-4” value is listed as ~ 18%.

The record behind these values is US20260207633A1, “COMPOSITION COMPRISING POLAR LIPIDS AND METHOD OF MAKING SAME” (VAXA TECHNOLOGIES LTD, priority 2021, published 2026).
